The structures appear in SMILES notation.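 Compound exposure: 48 hours, 5 concentrations, 96-well plates. Abbreviation: GI50, concentration required for 50% inhibition of growth.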 Calls of active or inactive are those of the source. Rule as the data show it: active = GI50 up to about 1.1 µM and inactive = higher. A value given as a limit tells only on which side of the number the result lay.

The source of these data is ChEMBL document CHEMBL1201862, “PubChem BioAssay data set” (2004).

Among the test systems are A549; ACHN; KM12; OVCAR-3; NCI-H460; SNB-75; SF-295; CAKI-1; RXF 393; M14; UACC-257; SK-MEL-5; SK-OV-3; SF-268; SW-620; HOP-62; RPMI-8226; NCI-H226; NCI-H522.
Holding throughout (assay): inhibition of tumour cell growth, NCI panel, 48 h

`CN1CC(=O)N2Cc3ccccc3-n3cccc3C2C1` (configuration not stated): the GI50 with A549, with ACHN, in the assay with KM12, in the assay with OVCAR-3, in the assay with NCI-H460 and with SNB-75 was > 100 µM (inactive) each time. Further, the GI50 in the assay with SF-295, in the assay on CAKI-1, with RXF 393, in the assay on M14, in the assay on UACC-257 and in the assay with SK-MEL-5 was > 100 µM (inactive) each time. In addition, the GI50 in the assay on SK-OV-3, in the assay on SF-268, with SW-620 and in the assay on HOP-62 was > 100 µM (inactive) throughout.
With `N#CC1C[C@@H]2CC3(CCC2CN1C(=O)c1ccccc1)OCCO3` (some centres not stated), the GI50 in the assay with A549, with ACHN, in the assay on KM12, in the assay on OVCAR-3, in the assay on NCI-H460 and in the assay on SNB-75 was > 100 µM (inactive) in each case. Moreover, the GI50 in the assay with SF-295, with RPMI-8226, in the assay on RXF 393, in the assay on M14, in the assay on UACC-257 and in the assay on SK-MEL-5 was > 100 µM (inactive) in each case. Besides, the GI50 in the assay with SK-OV-3, with SF-268, with SW-620 and in the assay on HOP-62 was > 100 µM (inactive) in each case.
`COc1ccccc1C1c2cc3c(cc2OC(O)(CO)C1C(=O)O)OCO3.COc1ccccc1C1c2cc3c(cc2OC2(O)COC(=O)C12)OCO3` (configuration not stated): the GI50 with A549 was > 100 µM (inactive); in the assay on ACHN, > 100 µM (inactive); in the assay on KM12 it was > 100 µM (inactive); with OVCAR-3 it was > 100 µM (inactive); with NCI-H460, > 100 µM (inactive); in the assay with SNB-75 it was 26.9 µM (inactive). Besides, the GI50 in the assay with NCI-H226, in the assay on SF-295, with RPMI-8226, in the assay on RXF 393, with M14 and with UACC-257 was > 100 µM (inactive) in each case. Also, the GI50 in the assay with SK-MEL-5, in the assay with SK-OV-3, in the assay with SF-268, in the assay with SW-620 and in the assay on HOP-62 was > 100 µM (inactive) in each case.
`Cc1cccc(C)c1NC(=O)CCCC(=O)C1CCC/C1=N\NC(=O)C(=O)NN` (configuration not stated): the GI50 with A549, with ACHN, in the assay with KM12, in the assay on OVCAR-3, in the assay with NCI-H460 and in the assay on SNB-75 was > 100 µM (inactive) each time. In addition, the GI50 with NCI-H226 is > 100 µM (inactive); in the assay on SF-295 it was > 100 µM (inactive); with CAKI-1 it was > 100 µM (inactive); in the assay on RPMI-8226, > 100 µM (inactive); in the assay with RXF 393, 24.5 µM (inactive); in the assay on M14 it was > 100 µM (inactive). Also, the GI50 in the assay on UACC-257, in the assay with SK-MEL-5, in the assay on SK-OV-3, in the assay with SF-268 and in the assay on SW-620 was > 100 µM (inactive) each time.
Regarding `CC(=O)Nc1ccc(/C=C2\N=C(c3ccccc3)OC2=O)cc1`, the GI50 in the assay on A549 was > 100 µM (inactive); in the assay with ACHN, > 100 µM (inactive); with KM12, 68.7 µM (inactive); in the assay with NCI-H460, 68.5 µM (inactive); in the assay with SNB-75 it was 64.9 µM (inactive); in the assay with NCI-H226 it was > 100 µM (inactive). For the same compound, the GI50 in the assay on SF-295 is 65.2 µM (inactive); in the assay with RPMI-8226, 48.8 µM (inactive); in the assay on RXF 393 it was 82.8 µM (inactive); in the assay on M14, > 100 µM (inactive); with UACC-257, > 100 µM (inactive); in the assay with SK-MEL-5 it was 57.8 µM (inactive). The GI50 in the assay on SK-OV-3, in the assay with SF-268, in the assay with SW-620 and in the assay on HOP-62 was > 100 µM (inactive) in each case.
For `O=C1N=C2SC(=S)N=C(S)N2NC12c1ccccc1-c1ccccc12`, the GI50 was > 10 µM (inactive) in the assay on A549; > 10 µM (inactive) in the assay with KM12; 0.736 µM (active) in the assay on NCI-H460; > 10 µM (inactive) in the assay with SNB-75; > 10 µM (inactive) with CAKI-1; 7.57 µM (inactive) in the assay on RPMI-8226. Also, the GI50 in the assay on M14 is > 10 µM (inactive); in the assay with UACC-257 it was 5.68 µM (inactive); with SK-MEL-5 it was 8.49 µM (inactive); with SK-OV-3, > 10 µM (inactive); in the assay on SF-268, > 10 µM (inactive); in the assay on SW-620, > 10 µM (inactive). The GI50 in the assay with HOP-62 is > 10 µM (inactive).
For `CCOC(=O)/C=C/c1ccccn1`, the GI50 with A549, with ACHN, with KM12, in the assay on NCI-H460, in the assay on SNB-75 and in the assay with NCI-H226 was > 100 µM (inactive) in each case. Further, the GI50 in the assay on SF-295, in the assay on CAKI-1, in the assay with RPMI-8226, in the assay on M14, with UACC-257 and with SK-MEL-5 was > 100 µM (inactive) each time. In addition, the GI50 with SK-OV-3, in the assay on SF-268, with NCI-H522, with SW-620 and in the assay with HOP-62 was > 100 µM (inactive) in each case.
Regarding `CN(C)c1ccc(/C=C2\C[C@H]3[C@@H]4CCC5=CC(=O)CC[C@]5(C)[C@H]4CC[C@]3(C)C2=O)cc1`, the GI50 in the assay with A549 is 38 µM (inactive); with ACHN it was 29.4 µM (inactive); in the assay with KM12, 72.1 µM (inactive); with OVCAR-3, 88.1 µM (inactive); in the assay on NCI-H460, 17.4 µM (inactive); with SNB-75 it was > 100 µM (inactive). Moreover, the GI50 is 62.4 µM (inactive) in the assay with NCI-H226; > 100 µM (inactive) with SF-295; > 100 µM (inactive) in the assay on CAKI-1; 17.5 µM (inactive) in the assay on RPMI-8226; 99.5 µM (inactive) with RXF 393; 43.9 µM (inactive) in the assay on M14. In addition, the GI50 in the assay on UACC-257 was 19 µM (inactive); in the assay with SK-MEL-5 it was 12.4 µM (inactive); in the assay with SK-OV-3, > 100 µM (inactive); with SF-268, 46.3 µM (inactive); with SW-620 it was 48.9 µM (inactive); in the assay on HOP-62, > 100 µM (inactive).
As for `O=C(CP(=O)(O)O)c1cccs1`, the GI50 in the assay with A549, with ACHN, with KM12, in the assay with OVCAR-3, in the assay on NCI-H460 and with SNB-75 was > 100 µM (inactive) in each case. Besides, the GI50 in the assay on SF-295, with CAKI-1, with RPMI-8226, in the assay with M14, in the assay on UACC-257 and with SK-MEL-5 was > 100 µM (inactive) in each case. Moreover, the GI50 in the assay with SK-OV-3, in the assay on SF-268, in the assay on NCI-H522, in the assay with SW-620 and with HOP-62 was > 100 µM (inactive) each time.
Consider `COc1ccc2c(c1)C(CCN)C(=O)N2` (configuration not stated), for which the GI50 in the assay with A549, with ACHN, in the assay on KM12, in the assay on OVCAR-3, in the assay with NCI-H460 and in the assay with SNB-75 was > 100 µM (inactive) each time. Further, the GI50 with SF-295, in the assay with CAKI-1, in the assay on RPMI-8226, with M14, in the assay with UACC-257 and in the assay with SK-MEL-5 was > 100 µM (inactive) in each case. In addition, the GI50 with SK-OV-3, in the assay with SF-268, with SW-620 and in the assay with HOP-62 was > 100 µM (inactive) in each case.
Turning to `CCOC(=O)N(NC(=O)NC(C)C)c1ccccc1`, the GI50 in the assay on A549, in the assay with ACHN, with KM12, in the assay with OVCAR-3, with NCI-H460 and with SNB-75 was > 100 µM (inactive) throughout. The GI50 with NCI-H226, with SF-295, in the assay with CAKI-1, in the assay with RXF 393, in the assay with M14 and with UACC-257 was > 100 µM (inactive) throughout. Further, the GI50 in the assay on SK-MEL-5, in the assay with SK-OV-3, in the assay on SW-620 and in the assay on HOP-62 was > 100 µM (inactive) in each case.
For `CN(N=O)C(=O)ON1C(=O)CCC1=O`, the GI50 was > 100 µM (inactive) with A549; > 100 µM (inactive) in the assay with ACHN; > 100 µM (inactive) with KM12; > 100 µM (inactive) with OVCAR-3; 47.8 µM (inactive) with NCI-H460; 54.1 µM (inactive) in the assay on SNB-75. Also, the GI50 with NCI-H226 was > 100 µM (inactive); with SF-295 it was > 10 µM (inactive); with CAKI-1, > 100 µM (inactive); with RPMI-8226, > 100 µM (inactive); in the assay on M14, > 100 µM (inactive); in the assay with UACC-257, > 100 µM (inactive). Besides, the GI50 with SK-MEL-5, in the assay on SK-OV-3, in the assay with SF-268, with NCI-H522, in the assay with SW-620 and with HOP-62 was > 100 µM (inactive) in each case.
